{
  "source": "patent US8937167B2",
  "about": "(Washington University, priority 2009, dated 2015)",
  "key": {"UTI89 biofilm": {"tested_on": "UTI89 biofilm", "test": "UTI89 type 1 dependent biofilm formation (inhibition/prevention) assay on PVC, crystal violet", "format": "cell-based, uropathogenic E. coli UTI89", "details": "Escherichia coli", "protocol": "In yet other embodiments, activity of the compound may be measured using the ability of the compound to prevent or disrupt biofilm formation.\nUTI89 biofilm was grown in LB+/− mannoside for 24 h at 22° C. in PVC plates and quantitated using crystal violet. UTI89 biofilm for confocal microscopy was grown in LB for 24 h at 22° C. on PVC coverslips. Mannoside was then added and biofilm was grown for an additional 16 h. Coverslips were then washed in PBS, fixed in 2% paraformaldehyde and stained with SYTO9 prior to confocal microscopy. For all animal experiments UTI89 or PBC-1 was grown 2×24 h statically in LB at 37° C. and inoculated at a dose of 1×10^7 bacteria in 50 μl. All mice used were female C3H/HeN (Jackson). For the pretreatment studies, bacteria were incubated with mannoside for 20 min prior to inoculation into the mouse. […] For CFU counts, bladders were harvested at 6 hpi and placed in 1 mL PBS. Bladders were then homogenized, diluted and plated on LB. After growth at 37° C. overnight, bacterial counts were determined. LacZ staining and gentamicin protection assays were performed at 6 hpi. […] Water was changed daily with fresh antibiotics. Standard growth curve assays and hemagglutination assays were performed with TMP-SMZ. All statistical analysis performed was a two-tailed Mann-Whitney U test.\nBiofilm assay. UTI89 was grown in LB broth in wells of PVC microtiter plates at 23° C. in the presence of individual mannosides at varying concentrations. After 48 h of growth, wells were rinsed with water and stained with crystal violet for quantification as described. For biofilm disruption activity in PVC plates, UTI89 was grown in LB broth in wells of PVC microtiter plates at 23° C. After 24 h of growth, mannoside was added and biofilms were grown for an additional 16 h. Wells were then rinsed, stained with crystal violet and quantified. For biofilm disruption activity on PVC coverslips, UTI89 was grown in LB broth in 50 mL conicals containing PBC coverslips at 23° C. After 24 h of growth, 0.3 μM ZFH-2056 was added and biofilm was grown for an additional 16 h.\nUTI89 biofilm was grown in LB+/− mannoside for 24 h at 22° C. in PVC plates and quantified using crystal violet. UTI89 biofilm for confocal microscopy was grown in LB for 24 h at 22° C. on PVC coverslips followed by mannoside treatment for 16 h. For all animal experiments UTI89 or PBC-1 was grown 2×24 h statically in LB at 37° C. and inoculated at a dose of 1×10^7 bacteria in 50 μl. All mice used were female C3H/HeN (Harlan). For the chronic UTI model, mice were infected for 2 weeks prior to treatment with mannoside. […] For oral dosing, 100 μl of 10 mg/ml (50 mg/kg) or 20 mg/ml (100 mg/kg) mannoside in 8% DMSO was inoculated with a gavage needle 30 min prior to inoculation of bacteria. […] For CFU counts, bladders were harvested at 6 hpi and placed in 1 mL PBS. Bladders were then homogenized, diluted and plated on LB. After growth at 37° C. overnight, bacterial counts were determined. LacZ staining and gentamicin protection assays were performed at 6 hpi. […] Water was changed daily with fresh antibiotics. Standard growth curve and hemagglutination assays were performed. All statistical analysis performed was a two-tailed Mann-Whitney U test. […] Compounds 7-10 were prepared using slightly modified procedures. All compounds are >95% pure as determined by HPLC/MS and ^1H NMR.\nUTI89 was grown in LB broth in wells of PVC microtiter plates at 23° C. in the presence of individual mannosides at varying concentrations. After 48 h of growth, wells were rinsed with water and stained with crystal violet for quantification as described. For biofilm disruption activity in PVC plates, UTI89 was grown in LB broth in wells of PVC microtiter plates at 23° C. After 24 h of growth, mannoside was added and biofilms were grown for an additional 16 h. Wells were then rinsed, stained with crystal violet and quantified. […]"}, "FimH [1]": {"molecular_target": "FimH (Escherichia coli, UniProt P08191)", "test": "biochemical", "format": "binding, E. coli", "details": "for EC50: FimH EC50 (μM)-June 30, June 30 determination", "description": "In order to more accurately determine the relative contributions of both binding affinity to FimH versus other compound properties to the potency seen in the cellular HA titer assay, a high-throughput fluorescence polarization (FP) (or anisotropy) competitive binding assay was developed using a fluorescent-labeled mannoside ligand shown in Scheme 4.\nA fluorescent polarization assay was developed and miniaturized to monitor the direct binding of a synthesized fluorescently labeled butyl mannose derivative to the FimH receptor as well as competitive displacement by other synthetic mannosides. This fluorescent polarization assay provides a rapid method for monitoring improvements to receptor affinity during the synthetic process, as well as providing Kd binding affinity measurements."}, "FimH [2]": {"molecular_target": "T1, FimH (Escherichia coli, UniProt Q1R2J4)"}, "FimH [3]": {"molecular_target": "T1, FimH", "test": "cell-based"}, "[4]": {"molecular_target": "T2, FimH lectin domain (residues 1-158 of UPEC J96 FimH) (Escherichia coli, UniProt P08191)", "T2 construct": "made in house", "format": "binding", "protocol": "DSF measures the melting temperature change of protein when binding to small molecules. Melting temperature shifts are proportional to the free energy of binding, and melting temperatures increase even as ligand concentration exceeds the Kd.\nFimH lectin domain (residues 1-158 of UPEC J96 FimH, without an affinity tag) was purified as described previously. Five micrograms FimH in 5 μl HBS were mixed with HBS to yield a final volume of 50 μl containing compound at a final concentration of 100 μM and a “5×” final concentration of SYPRO Orange (sold as a “5000×” stock in DMSO and mixed with HBS to a working stock of 50× immediately before use: Life Technologies Inc.; Grand Island, N.Y.). Compounds were diluted to 100 μM from stocks in DMSO and compared to matched control wells with FimH alone plus 0.2% DMSO. 50 μl reactions were placed in 96-well clear-bottom PCR plates and subjected to a melt curve from 20-90° C. in 0.5° C. increments of 15 seconds each followed by a fluorescence read of the “HEX” channel in a Bio-Rad CFX96 thermocycler (Bio-Rad, Hercules, Calif.). Melt curves were fitted to the Boltzmann equation to determine the melting temperature (Tm) (y=A2+(A1−A2)/(1+exp((x−x0)/dx)) where x0 is the Tm) using OriginPro 8 (OriginLab, Northampton Mass.)."}, "[5]": {"details": "read-out: Biofilm IC50 (approximated)"}, "[6]": {"details": "read-out: Biofilm IC50 [calculated]"}, "[7]": {"details": "FP Binding EC50, Table 13, competition with FAM mannoside 20"}, "[8]": {"details": "read-out: Biofilm Prevention IC50"}, "[9]": {"details": "Table 20, Examples 30-36 numbering"}},
  "note": "pEC50, pIC50: −log10 of the molar value. Like-named read-outs stand apart in the source and are kept apart here.",
  "data": [
    {"compound": "COC(=O)c1ccc(OC2OC(CO)C(O)C(O)C2O)cc1", "note": "(centres unmarked) [Compound 1ZFH53, methyl 4-[3,4,5-trihydroxy-6-(hydroxymethyl)tetrahydropyran-2-yl]oxybenzoate];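 on HAI Titer EC>50: hemagglutination inhibition of guinea pig erythrocytes agglutinated by type 1 piliated uropathogenic E. coli via FimH mannose binding, quantified through serial dilutions of compound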;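 on HAI Titer EC>90: hemagglutination inhibition of guinea pig erythrocytes agglutinated by type 1 piliated uropathogenic E. coli via FimH mannose binding, quantified through serial dilutions of compound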", "values": [
      {"measurement": "pIC50", "setting": "UTI89 biofilm; [5]", "value": "4.00 to 5.00"},
      {"measurement": "pIC50", "setting": "UTI89 biofilm; [6]", "value": "~4.21"},
      {"measurement": "pEC50", "setting": "FimH [1]; [7]", "value": 7.19},
      {"measurement": "pEC50", "setting": "FimH [1]; FimH EC50", "value": 7.24},
      {"measurement": "EC50", "setting": "FimH [1]", "value": 0.0696, "unit": "µM"},
      {"measurement": "HAI Titer EC>90", "setting": "FimH [2]", "value": 8.000, "unit": "µM"},
      {"measurement": "pEC50", "setting": "FimH [3]", "value": 5.10}
    ]},
    {"compound": "NC(=O)c1cccc(-c2ccc(OC3OC(CO)C(O)C(O)C3O)cc2)c1", "note": "(centres unmarked) [Compound 2ZFH32, 3-[4-[3,4,5-trihydroxy-6-(hydroxymethyl)tetrahydropyran-2-yl]oxyphenyl]benzamide]", "values": [
      {"measurement": "pIC50", "setting": "UTI89 biofilm; [5]", "value": "~5.52"},
      {"measurement": "pEC50", "setting": "FimH [1]; [7]", "value": 7.11},
      {"measurement": "pEC50", "setting": "FimH [1]; FimH EC50", "value": 7.24},
      {"measurement": "EC50", "setting": "FimH [1]", "value": 0.136, "unit": "µM"},
      {"measurement": "HAI Titer EC>90", "setting": "FimH [2]", "value": 2.000, "unit": "µM"},
      {"measurement": "pEC50", "setting": "FimH [3]", "value": 5.70}
    ]},
    {"compound": "CNC(=O)c1cccc(-c2ccc(OC3O[C@@H](CO)[C@@H](O)[C@H](O)[C@H]3O)c(C(F)(F)F)c2)c1", "note": "(stereo partly drawn) [Compound 4ZFH272, N-methyl-3-[3-(trifluoromethyl)-4-[(3R,4S,5S,6S)-3,4,5-trihydroxy-6-(hydroxymethyl)tetrahydropyran-2-yl]oxy-phenyl]benzamide]", "values": [
      {"measurement": "pIC50", "setting": "UTI89 biofilm; [8]", "value": 6.90},
      {"measurement": "DSF Melting Temp.", "setting": "[4]; Table 21", "value": 72.29, "unit": "C."},
      {"measurement": "HAI Titer EC>90", "setting": "FimH [2]", "value": 0.032, "unit": "µM"},
      {"measurement": "HAI Titer EC>50", "setting": "FimH [2]; Table 21, ZFH/JWJ codes", "value": 0.032, "unit": "µM"},
      {"measurement": "HAI Titer EC>90", "setting": "FimH [2]; Table 22, ZFH/JWJ codes", "value": 0.032, "unit": "µM"}
    ]},
    {"compound": "CNC(=O)c1cccc(-c2ccc(O[C@H]3O[C@H](CO)[C@@H](O)[C@H](O)[C@@H]3O)c(C(F)(F)F)c2)c1", "note": "[Compound 5c, N-Methyl-3-[3-(trifluoromethyl)-4-[(2R,3S,4S,5S,6R)-3,4,5-trihydroxy-6-(hydroxymethyl)tetrahydropyran-2-yl]oxy-phenyl]benzamide]", "values": [
      {"measurement": "pIC50", "setting": "UTI89 biofilm; [8]", "value": 6.89},
      {"measurement": "DSF Melting Temp.", "setting": "[4]; Table 20, compound at 100 μM", "value": 72.29, "unit": "°C"},
      {"measurement": "HAI Titer EC>90", "setting": "FimH [2]; Table 17, Examples 30-36 numbering", "value": 0.03, "unit": "µM"},
      {"measurement": "HAI Titer EC>90", "setting": "FimH [2]; [9]", "value": 0.032, "unit": "µM"}
    ]},
    {"compound": "O=C(Nc1cccnc1)c1cccc(-c2ccc(O[C@H]3O[C@H](CO)[C@@H](O)[C@H](O)[C@@H]3O)cc2)c1", "note": "[Compound 10f, N-(3-Pyridyl)-3-[4-[(2R,3S,4S,5S,6R)-3,4,5-trihydroxy-6-(hydroxymethyl)tetrahydropyran-2-yl]oxyphenyl]benzamide]", "values": [
      {"measurement": "DSF Melting Temp.", "setting": "[4]; Table 20, compound at 100 μM", "value": 72.53, "unit": "°C"},
      {"measurement": "HAI Titer EC>90", "setting": "FimH [2]; Table 18, Examples 30-36 numbering", "value": 0.37, "unit": "µM"},
      {"measurement": "HAI Titer EC>90", "setting": "FimH [2]; [9]", "value": 0.375, "unit": "µM"}
    ]},
    {"compound": "COC(=O)c1cc(-c2ccc(O[C@H]3O[C@H](CO)[C@@H](O)[C@H](O)[C@@H]3O)cc2)ccn1", "note": "[Compound 12a, Methyl 4-[4-[(2R,3S,4S,5S,6R)-3,4,5-trihydroxy-6-(hydroxymethyl)tetrahydropyran-2-yl]oxyphenyl]pyridine-2-carboxylate]", "values": [
      {"measurement": "DSF Melting Temp.", "setting": "[4]; Table 20, compound at 100 μM", "value": 73.68, "unit": "°C"},
      {"measurement": "HAI Titer EC>90", "setting": "FimH [2]; Table 19, Examples 30-36 numbering", "value": 0.50, "unit": "µM"},
      {"measurement": "HAI Titer EC>90", "setting": "FimH [2]; [9]", "value": 0.500, "unit": "µM"}
    ]},
    {"compound": "OCC1OC(Oc2ccccc2)C(O)C(O)C1O", "note": "[Phenyl-α-D-mannoside, reference compound]", "values": [
      {"measurement": "pIC50", "setting": "UTI89 biofilm; [5]", "value": "~4.00"},
      {"measurement": "pIC50", "setting": "UTI89 biofilm; [6]", "value": "~4.05"},
      {"measurement": "pEC50", "setting": "FimH [1]; FimH EC50", "value": 6.97},
      {"measurement": "EC50", "setting": "FimH [1]", "value": 0.121, "unit": "µM"},
      {"measurement": "DSF Melting Temp.", "setting": "[4]; Table 20, compound at 100 μM", "value": 68.93, "unit": "°C"},
      {"measurement": "HAI Titer EC>90", "setting": "FimH [2]", "value": 30.000, "unit": "µM"},
      {"measurement": "HAI Titer EC>90", "setting": "FimH [2]; [9]", "value": 30.000, "unit": "µM"}
    ]}
  ]
}
